From ChEMBL document CHEMBL1201862, “PubChem BioAssay data set” (2004) come the findings set out here.

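Briefly, cells in 96-well plates were exposed to five compound concentrations for 48 h, and endpoints were estimated by linear interpolation. Here, GI50 denotes the concentration required for 50% inhibition of growth.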 Activity calls are given as the source filed them. Cut-off read from the data, not from the text of the source: active = GI50 up to about 1.1 µM and inactive = higher.

Test systems include A549; ACHN; COLO 205; EKVX; HCC 2998; HCT-15; HOP-92; Hs-578T; KM12; MCF7; MDA-N; NCI-H522; RPMI-8226; SF-268; SF-539; SK-MEL-5; SNB-19; UACC-257; SK-MEL-2.
Holding throughout (assay): NCI-60 cell line screen, 48 h

With `CN(C)c1n/c(=N/Cc2ccncc2)ss1`, the GI50 was > 10 µM (inactive) in the assay on A549; 13.5 µM (inactive) in the assay with ACHN; 54.5 µM (inactive) with COLO 205; > 71.9 µM (inactive) with EKVX; > 52.6 µM (inactive) in the assay with HCC 2998; 45 µM in the assay with HCT-15. In addition, the GI50 in the assay on HOP-92 is > 63.1 µM (inactive); with Hs-578T it was 23.6 µM (inactive); in the assay on KM12, > 10 µM (inactive); in the assay with MCF7, 61 µM (inactive); in the assay on MDA-N, 21.7 µM (inactive); with NCI-H522, 16.1 µM (inactive). Besides, the GI50 in the assay with RPMI-8226 was 21 µM (inactive); in the assay with SF-268 it was 46.2 µM (inactive); in the assay on SF-539, > 46.9 µM (inactive); in the assay on SK-MEL-5, > 10 µM (inactive); with SNB-19, > 71.4 µM (inactive); with UACC-257, > 39.7 µM (inactive).
As for `O=C(CCCCCCCCC(=O)N1C(=O)CC(=O)N(c2cccc(Cl)c2)C1=S)N1C(=O)CC(=O)N(c2cccc(Cl)c2)C1=S`, the GI50 in the assay with A549 is 32.5 µM (inactive); in the assay on ACHN it was 46.2 µM (inactive); with COLO 205 it was 37.3 µM (inactive); with EKVX, 38.3 µM (inactive); in the assay with HCC 2998, 94.4 µM (inactive); in the assay on HCT-15, 43.5 µM. Also, the GI50 with HOP-92 was 20.5 µM (inactive); with Hs-578T, 19.3 µM (inactive); with KM12, 40.3 µM (inactive); in the assay with MCF7, 34.3 µM (inactive); with MDA-N, 41.2 µM (inactive); in the assay on NCI-H522, 16.3 µM (inactive). The GI50 is 27.2 µM (inactive) in the assay with RPMI-8226; 57.4 µM (inactive) in the assay on SF-268; 37.7 µM (inactive) in the assay on SK-MEL-2; 28.7 µM (inactive) in the assay with SK-MEL-5; 33.7 µM (inactive) in the assay with SNB-19; 45 µM (inactive) with UACC-257.
For `COc1c(/C=C/C(C)(C)O)cc(C2CC(=O)c3c(O)cc(O)cc3O2)cc1CC=C(C)C` (centres undefined), the GI50 in the assay with A549 was 9.75 µM (inactive); with ACHN it was 7.6 µM (inactive); in the assay with COLO 205 it was 9.35 µM (inactive); in the assay on HCC 2998 it was 2.36 µM (inactive); in the assay on HCT-15, 8.2 µM; in the assay with HOP-92 it was 10.3 µM (inactive). In addition, the GI50 in the assay on Hs-578T is 10.7 µM (inactive); with KM12, 10.4 µM (inactive); with MCF7 it was 8.51 µM (inactive); in the assay with MDA-N, 9.53 µM (inactive); with NCI-H522 it was 9.27 µM (inactive); in the assay with RPMI-8226, 10.8 µM (inactive). In addition, the GI50 is 9.04 µM (inactive) with SF-268; 9.4 µM (inactive) in the assay with SF-539; 8.61 µM (inactive) with SK-MEL-2; 8.47 µM (inactive) with SK-MEL-5; 10.6 µM (inactive) in the assay with SNB-19; 8.3 µM (inactive) with UACC-257.
Consider `COC(=O)[C@@]12CN(C)[C@@H](C(C)(C)C)N1C(=O)OC2c1ccccc1` (some centres undefined), for which the GI50 in the assay with A549 is > 100 µM (inactive); in the assay on ACHN, > 100 µM (inactive); with COLO 205, > 100 µM (inactive); in the assay with EKVX, > 100 µM (inactive); with HCC 2998, > 100 µM (inactive); with HCT-15 it was more than 100 µM. For the same molecule, the GI50 with HOP-92, with Hs-578T, in the assay with KM12, with MCF7, in the assay with MDA-N and with NCI-H522 was > 100 µM (inactive) in each case. For the same molecule, the GI50 in the assay on RPMI-8226, with SF-268, with SF-539, in the assay on SK-MEL-5, with SNB-19 and in the assay on UACC-257 was > 100 µM (inactive) in each case.
As to `O=C(Cn1c2c(c3ccccc31)CCCC2)N1CCCC1`, the GI50 was > 100 µM (inactive) in the assay on A549; > 100 µM (inactive) with ACHN; > 100 µM (inactive) in the assay with COLO 205; > 100 µM (inactive) in the assay with EKVX; > 100 µM (inactive) in the assay with HCC 2998; 80.7 µM in the assay on HCT-15. The GI50 in the assay on HOP-92 was > 100 µM (inactive); with Hs-578T, 22.8 µM (inactive); with MCF7 it was > 100 µM (inactive); with MDA-N, > 100 µM (inactive); in the assay with RPMI-8226, > 100 µM (inactive); in the assay on SF-539 it was 69.8 µM (inactive). Further, the GI50 was > 100 µM (inactive) in the assay on SK-MEL-2, 54.3 µM (inactive) in the assay with SK-MEL-5, > 100 µM (inactive) in the assay with SNB-19 and > 100 µM (inactive) with UACC-257.
For `O=c1cc(CO)n(CCc2c[nH]c3ccccc23)cc1O`, the GI50 in the assay with A549 is > 100 µM (inactive); in the assay on ACHN, 66.5 µM (inactive); in the assay with COLO 205, 55 µM (inactive); in the assay on EKVX it was > 100 µM (inactive); in the assay with HCT-15, 51.2 µM; in the assay with HOP-92, 30.6 µM (inactive). Moreover, the GI50 with Hs-578T is 28.1 µM (inactive); in the assay with KM12, 42.1 µM (inactive); with MCF7, 25.1 µM (inactive); with MDA-N, 21.3 µM (inactive); with NCI-H522, 24.7 µM (inactive); in the assay on RPMI-8226, > 100 µM (inactive). In addition, the GI50 in the assay on SF-268 was 20.7 µM (inactive); with SF-539 it was > 100 µM (inactive); in the assay on SK-MEL-2, 30.1 µM (inactive); in the assay with SK-MEL-5, 47.8 µM (inactive); with SNB-19, 37.1 µM (inactive); with UACC-257 it was > 100 µM (inactive).
For `CC1(c2ccc(Cl)cc2)CC(c2ccc(Cl)cc2)=C(C#N)C(=C(C#N)C#N)N1` (centres undefined), the GI50 was 20.4 µM (inactive) in the assay on A549; 14.5 µM (inactive) in the assay with ACHN; 12.8 µM (inactive) in the assay on COLO 205; 17.9 µM (inactive) in the assay with EKVX; 13.2 µM (inactive) with HCC 2998; 15.8 µM in the assay on HCT-15. In addition, the GI50 is 3.25 µM (inactive) in the assay on HOP-92; 19.9 µM (inactive) in the assay on Hs-578T; 19.9 µM (inactive) with KM12; 18.9 µM (inactive) with MCF7; 19 µM (inactive) with MDA-N; 8.77 µM (inactive) with RPMI-8226. Moreover, the GI50 was 7.83 µM (inactive) with SF-268; 18.4 µM (inactive) in the assay with SF-539; 22.9 µM (inactive) in the assay with SK-MEL-2; 13.9 µM (inactive) in the assay with SK-MEL-5; 17.5 µM (inactive) in the assay with SNB-19; 17.7 µM (inactive) in the assay on UACC-257.
Take `CC1=C(C#N)C2C(=C(C)N1)C(N)=Nc1ccccc12` (centres undefined): the GI50 with A549 was 73.1 µM (inactive); in the assay on ACHN, 47.6 µM (inactive); with COLO 205 it was 42.8 µM (inactive); in the assay on EKVX, 19.1 µM (inactive); in the assay on HCC 2998 it was 35.2 µM (inactive); with HCT-15, 85.5 µM. Further, the GI50 in the assay on HOP-92 is 12.1 µM (inactive); with Hs-578T it was 23 µM (inactive); with KM12 it was 27.6 µM (inactive); with MCF7, 80.5 µM (inactive); in the assay on MDA-N, 43.2 µM (inactive); with NCI-H522, 30.8 µM (inactive). Further, the GI50 is 39.4 µM (inactive) in the assay with SF-268; 29.7 µM (inactive) in the assay on SF-539; 81.8 µM (inactive) in the assay with SK-MEL-2; 30 µM (inactive) in the assay on SK-MEL-5; 37.1 µM (inactive) in the assay on SNB-19; 99.5 µM (inactive) with UACC-257.
For the molecule `O=C1c2ccccc2C(C2c3ccccc3C(=O)c3cc(Br)ccc32)c2ccc(Br)cc21` (centres undefined), the GI50 in the assay with A549 was > 100 µM (inactive); with ACHN, > 100 µM (inactive); in the assay on COLO 205, > 100 µM (inactive); with EKVX, > 100 µM (inactive); in the assay on HCC 2998, > 100 µM (inactive); with HCT-15, more than 100 µM. For the same molecule, the GI50 in the assay with HOP-92, in the assay on Hs-578T, in the assay on KM12, in the assay on MCF7, with MDA-N and in the assay with NCI-H522 was > 100 µM (inactive) throughout. For the same molecule, the GI50 in the assay on RPMI-8226, in the assay with SF-268, with SK-MEL-5, with SNB-19 and in the assay on UACC-257 was > 100 µM (inactive) in each case.
`C[C@H]1S[C@H](c2c(Cl)cccc2Cl)N2Cc3ccccc3N=C12`: the GI50 in the assay with A549 was 15.2 µM (inactive); in the assay with ACHN, 12.4 µM (inactive); in the assay with COLO 205, 11.1 µM (inactive); in the assay with EKVX, 10.2 µM (inactive); in the assay on HCC 2998 it was 14.4 µM (inactive); in the assay with HCT-15 it was 14.9 µM. For the same molecule, the GI50 with HOP-92 is 17.9 µM (inactive); with Hs-578T it was 10.8 µM (inactive); in the assay with KM12, 12 µM (inactive); with MCF7, 14.2 µM (inactive); in the assay with MDA-N, 21 µM (inactive); in the assay with RPMI-8226, 16 µM (inactive). Further, the GI50 in the assay on SF-268 was 14.2 µM (inactive); in the assay with SF-539, 14.7 µM (inactive); with SK-MEL-2, 10.1 µM (inactive); in the assay with SK-MEL-5, 10.2 µM (inactive); in the assay on SNB-19, 10.3 µM (inactive); in the assay on UACC-257, 16.6 µM (inactive).
For `CCCCCCCC1(N=[N+]=[N-])C(=O)Nc2ccccc2C1=O` (centres undefined), the GI50 is 14.8 µM (inactive) in the assay on A549; 14.4 µM (inactive) with ACHN; 20 µM (inactive) in the assay with COLO 205; 20.6 µM (inactive) in the assay on HCC 2998; 21.9 µM in the assay on HCT-15; 13.6 µM (inactive) in the assay on HOP-92. Further, the GI50 was 17.5 µM (inactive) with Hs-578T; 22.5 µM (inactive) in the assay with KM12; 19.1 µM (inactive) in the assay on MCF7; 19.8 µM (inactive) in the assay with MDA-N; 25.5 µM (inactive) in the assay with RPMI-8226; 15.6 µM (inactive) in the assay on SF-268. For the same molecule, the GI50 with SF-539 was 15.7 µM (inactive); in the assay with SK-MEL-2 it was 16.8 µM (inactive); in the assay with SK-MEL-5 it was 15.1 µM (inactive); in the assay with SNB-19 it was 17.5 µM (inactive); with UACC-257, 21 µM (inactive).
